These results are taken from ChEMBL document CHEMBL1201862, “PubChem BioAssay data set” (2004).

Type in all cases: functional
For assay [1], the target named is T1, High affinity choline transporter 1 (Homo sapiens, UniProt Q9GZV3).
T1 sequence (Q9GZV3 whole entry): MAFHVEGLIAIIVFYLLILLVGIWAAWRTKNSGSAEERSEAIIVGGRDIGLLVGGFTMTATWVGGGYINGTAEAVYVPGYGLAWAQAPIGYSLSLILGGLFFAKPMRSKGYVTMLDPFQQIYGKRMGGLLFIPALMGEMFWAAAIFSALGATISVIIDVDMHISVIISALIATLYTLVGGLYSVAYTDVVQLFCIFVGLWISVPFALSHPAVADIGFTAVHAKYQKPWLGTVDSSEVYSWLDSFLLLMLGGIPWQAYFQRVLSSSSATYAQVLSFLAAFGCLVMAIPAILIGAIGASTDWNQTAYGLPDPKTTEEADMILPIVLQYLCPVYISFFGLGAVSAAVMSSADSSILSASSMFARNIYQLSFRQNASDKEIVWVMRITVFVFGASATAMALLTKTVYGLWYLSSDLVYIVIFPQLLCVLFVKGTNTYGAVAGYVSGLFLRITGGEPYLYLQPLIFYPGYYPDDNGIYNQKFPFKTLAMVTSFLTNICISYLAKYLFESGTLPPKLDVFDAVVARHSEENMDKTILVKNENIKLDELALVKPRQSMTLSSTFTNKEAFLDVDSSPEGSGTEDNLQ
In words: CHT inhibitors, dose response, cell-based, 10-point CRC, membrane potential dye (AID 588401).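 Further: membrane potential dye fluorescence of choline-evoked depolarization via CHT.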

Assay [2] has as its target T1, High affinity choline transporter 1. In words: CHT inhibitors, dose response, cell-based, 5-point CRC, membrane potential dye (AID 504840).
The target in assay [3] is T2, Protein disulfide-isomerase (Homo sapiens, UniProt P07237). In words: PDI inhibitors, insulin aggregation turbidity, dose response, biochemical, absorbance, cherry-picked samples (AID 602350).
The target of assay [4] is T2, Protein disulfide-isomerase. In words: PDI inhibitors, insulin turbidity readout, dose response, biochemical, absorbance, cherry-picked samples, set 2 (AID 624274).
Assay [5] deals with Melanin-concentrating hormone receptor 1 (Homo sapiens, UniProt Q99705). In words: Late-stage fluorescence-based counterscreen for antagonists of the G-protein coupled receptor 7 (GPR7): cell-based dose response assay to identify antagonists of the melanin-concentrating hormone receptor 1 (MCHR1) Set 6.
Assay [6] addresses T3, Neuropeptides B/W receptor type 1 (Homo sapiens, UniProt P48145).
T3 sequence (P48145 whole entry): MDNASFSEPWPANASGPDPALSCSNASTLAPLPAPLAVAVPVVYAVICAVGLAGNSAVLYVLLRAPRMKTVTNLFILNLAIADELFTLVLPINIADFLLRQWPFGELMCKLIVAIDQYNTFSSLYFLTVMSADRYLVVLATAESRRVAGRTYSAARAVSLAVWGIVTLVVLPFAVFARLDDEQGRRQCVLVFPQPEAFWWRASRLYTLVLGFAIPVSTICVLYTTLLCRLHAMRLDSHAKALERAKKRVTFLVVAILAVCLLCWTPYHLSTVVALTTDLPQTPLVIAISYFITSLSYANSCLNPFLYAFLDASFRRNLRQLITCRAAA
In words: GPR7 antagonist potency, late-stage follow-up, cell-based, fluorescence, dose response, set 6 (AID 588583).

The target in assay [7] is T4, Apoptotic protease-activating factor 1 (Homo sapiens, UniProt O14727).
T4 sequence (O14727 whole entry): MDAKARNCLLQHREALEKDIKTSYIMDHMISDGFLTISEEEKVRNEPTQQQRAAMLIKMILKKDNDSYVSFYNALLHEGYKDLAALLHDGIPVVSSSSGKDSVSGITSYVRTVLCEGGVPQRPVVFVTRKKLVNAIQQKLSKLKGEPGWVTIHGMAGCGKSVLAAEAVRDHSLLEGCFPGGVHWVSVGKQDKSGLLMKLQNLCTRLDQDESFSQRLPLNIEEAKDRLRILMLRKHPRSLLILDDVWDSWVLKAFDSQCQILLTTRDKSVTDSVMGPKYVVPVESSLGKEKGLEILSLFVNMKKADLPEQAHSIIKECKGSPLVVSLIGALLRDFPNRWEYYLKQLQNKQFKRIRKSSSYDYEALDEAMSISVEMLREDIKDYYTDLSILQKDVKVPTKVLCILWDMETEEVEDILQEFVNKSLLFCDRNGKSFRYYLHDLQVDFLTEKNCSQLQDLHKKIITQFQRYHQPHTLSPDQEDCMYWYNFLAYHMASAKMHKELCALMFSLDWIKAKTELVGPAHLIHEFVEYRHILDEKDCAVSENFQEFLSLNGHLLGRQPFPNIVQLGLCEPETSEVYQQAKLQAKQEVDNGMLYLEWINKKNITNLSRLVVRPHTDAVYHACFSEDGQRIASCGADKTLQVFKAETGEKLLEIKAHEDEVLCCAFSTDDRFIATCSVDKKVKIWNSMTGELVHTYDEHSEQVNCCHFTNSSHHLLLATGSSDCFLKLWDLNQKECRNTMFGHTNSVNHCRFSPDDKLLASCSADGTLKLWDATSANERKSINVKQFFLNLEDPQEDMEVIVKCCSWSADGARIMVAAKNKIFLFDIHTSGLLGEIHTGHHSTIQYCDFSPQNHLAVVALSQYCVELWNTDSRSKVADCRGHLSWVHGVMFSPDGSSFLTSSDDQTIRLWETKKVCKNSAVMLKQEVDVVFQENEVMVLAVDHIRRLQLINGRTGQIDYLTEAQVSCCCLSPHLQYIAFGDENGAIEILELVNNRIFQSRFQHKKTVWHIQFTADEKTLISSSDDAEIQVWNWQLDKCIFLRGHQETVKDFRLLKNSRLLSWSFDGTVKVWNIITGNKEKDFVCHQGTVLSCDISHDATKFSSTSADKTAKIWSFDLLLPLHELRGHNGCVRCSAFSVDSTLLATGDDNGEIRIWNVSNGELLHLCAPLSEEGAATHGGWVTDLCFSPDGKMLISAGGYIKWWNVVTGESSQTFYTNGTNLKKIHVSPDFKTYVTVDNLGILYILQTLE
In words: SAR analysis of small molecule inhibitors of Apaf-1 in a Fluorescent assay. To be noted: read-out: IC50_Mean.

The target of assay [8] is Sphingosine 1-phosphate receptor 2 (Homo sapiens, UniProt O95136). In words: S1P2 receptor agonists, human, late-stage follow-up, counter-screen for S1P4 agonist project, cell-based, fluorescence, set 2 (AID 504873).
Assay [9] has as its target Sphingosine 1-phosphate receptor 3 (Homo sapiens, UniProt Q99500). In words: Late-stage fluorescence-based dose-response cell-based counterscreen assay to identify agonists of the Sphingosine 1-Phosphate Receptor 4 (S1P4): Sphingosine 1-Phosphate Receptor 3 (S1P3) agonist assay Set 2.
Assay [10] concerns the target Sphingosine 1-phosphate receptor 5 (Homo sapiens, UniProt Q9H228). In words: S1P5 receptor agonists, human, late-stage follow-up, counter-screen for S1P4 agonist project, cell-based, fluorescence, set 2 (AID 504867).
Assay [11] concerns the target Sphingosine 1-phosphate receptor 1 (Homo sapiens, UniProt P21453). In words: Late-stage fluorescence-based dose-response cell-based counterscreen assay to identify agonists of the Sphingosine 1-Phosphate Receptor 4 (S1P4): Sphingosine 1-Phosphate Receptor 1 (S1P1) agonist assay Set 2.
A short description of assay [12]: THP-1 cell cytotoxicity, cytotoxicity control, set 5 (AID 588443).
The target in assay [13] is Multidrug resistance protein CDR2 (Candida albicans (strain SC5314 / ATCC MYA-2876) (Yeast), UniProt P78595). In words: CaCDR2 efflux pump inhibitors in yeast, dose response, S. cerevisiae AD1-8u, singleplex, Cherry Pick1 hits (AID 588604).

Molecules are shown by their SMILES. The source made the active and inactive calls. Unless noted, the calls are words filed in the database; no cut-off is given here.

T2 sequence (P07237 whole entry): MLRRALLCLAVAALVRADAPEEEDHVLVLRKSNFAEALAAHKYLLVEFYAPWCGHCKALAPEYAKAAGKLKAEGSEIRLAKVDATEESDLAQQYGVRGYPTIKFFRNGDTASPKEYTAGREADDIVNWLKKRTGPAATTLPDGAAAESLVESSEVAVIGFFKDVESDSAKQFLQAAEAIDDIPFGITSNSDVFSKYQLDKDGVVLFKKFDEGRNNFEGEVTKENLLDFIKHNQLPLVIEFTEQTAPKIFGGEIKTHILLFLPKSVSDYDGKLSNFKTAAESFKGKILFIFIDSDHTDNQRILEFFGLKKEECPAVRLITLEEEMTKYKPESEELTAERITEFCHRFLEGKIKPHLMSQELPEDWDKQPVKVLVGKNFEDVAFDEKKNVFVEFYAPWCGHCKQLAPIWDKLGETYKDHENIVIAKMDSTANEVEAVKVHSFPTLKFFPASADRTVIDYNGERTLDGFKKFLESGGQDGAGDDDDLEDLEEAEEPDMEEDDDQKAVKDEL
Chain of Sphingosine 1-phosphate receptor 2 (O95136 whole entry): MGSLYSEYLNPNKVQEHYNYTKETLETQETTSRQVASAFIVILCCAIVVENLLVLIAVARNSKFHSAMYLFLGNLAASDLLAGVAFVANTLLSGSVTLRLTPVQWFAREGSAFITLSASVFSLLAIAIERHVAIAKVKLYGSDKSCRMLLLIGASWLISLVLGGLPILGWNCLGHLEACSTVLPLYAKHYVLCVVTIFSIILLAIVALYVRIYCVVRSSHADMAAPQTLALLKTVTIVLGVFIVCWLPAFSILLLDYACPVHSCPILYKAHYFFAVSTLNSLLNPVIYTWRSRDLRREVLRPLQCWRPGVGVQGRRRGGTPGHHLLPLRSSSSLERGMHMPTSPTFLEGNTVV
Chain of Multidrug resistance protein CDR2 (P78595 whole entry): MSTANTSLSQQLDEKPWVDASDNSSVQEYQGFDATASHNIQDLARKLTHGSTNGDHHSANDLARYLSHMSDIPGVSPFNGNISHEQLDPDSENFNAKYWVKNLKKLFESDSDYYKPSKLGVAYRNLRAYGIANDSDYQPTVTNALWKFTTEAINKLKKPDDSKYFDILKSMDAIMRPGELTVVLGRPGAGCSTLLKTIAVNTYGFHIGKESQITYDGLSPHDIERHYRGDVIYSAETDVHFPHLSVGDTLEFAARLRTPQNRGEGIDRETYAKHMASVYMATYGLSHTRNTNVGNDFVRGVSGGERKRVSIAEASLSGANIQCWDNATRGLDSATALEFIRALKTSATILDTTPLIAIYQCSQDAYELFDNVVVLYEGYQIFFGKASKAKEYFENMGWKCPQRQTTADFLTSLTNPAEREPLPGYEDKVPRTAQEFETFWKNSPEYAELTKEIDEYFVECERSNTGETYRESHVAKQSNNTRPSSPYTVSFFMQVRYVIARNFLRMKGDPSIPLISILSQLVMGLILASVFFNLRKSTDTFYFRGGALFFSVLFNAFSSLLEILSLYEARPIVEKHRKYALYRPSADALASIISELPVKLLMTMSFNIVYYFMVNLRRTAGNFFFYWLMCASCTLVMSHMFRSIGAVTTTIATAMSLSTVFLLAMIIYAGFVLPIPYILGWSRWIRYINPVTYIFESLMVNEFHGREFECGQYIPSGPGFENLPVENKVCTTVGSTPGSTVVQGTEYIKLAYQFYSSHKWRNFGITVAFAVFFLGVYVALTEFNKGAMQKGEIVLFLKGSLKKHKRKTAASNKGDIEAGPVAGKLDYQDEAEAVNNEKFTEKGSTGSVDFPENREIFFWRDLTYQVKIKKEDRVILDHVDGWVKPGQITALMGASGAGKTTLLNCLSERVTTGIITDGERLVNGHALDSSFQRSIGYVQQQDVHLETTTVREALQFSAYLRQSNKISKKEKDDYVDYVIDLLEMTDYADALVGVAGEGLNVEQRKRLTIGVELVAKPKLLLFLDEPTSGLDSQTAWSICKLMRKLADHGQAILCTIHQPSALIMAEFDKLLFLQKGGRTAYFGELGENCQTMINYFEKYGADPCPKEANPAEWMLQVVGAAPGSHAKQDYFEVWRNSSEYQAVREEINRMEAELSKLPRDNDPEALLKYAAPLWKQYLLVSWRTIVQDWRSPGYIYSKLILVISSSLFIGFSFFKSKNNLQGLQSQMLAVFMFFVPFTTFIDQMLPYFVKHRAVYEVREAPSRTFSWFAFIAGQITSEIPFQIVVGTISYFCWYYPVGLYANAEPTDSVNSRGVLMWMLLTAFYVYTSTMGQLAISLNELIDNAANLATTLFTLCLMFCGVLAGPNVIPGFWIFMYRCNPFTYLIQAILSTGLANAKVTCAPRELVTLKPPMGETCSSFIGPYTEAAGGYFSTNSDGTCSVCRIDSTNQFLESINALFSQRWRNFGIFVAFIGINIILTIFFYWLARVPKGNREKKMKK
Chain of Sphingosine 1-phosphate receptor 5 (Q9H228 whole entry): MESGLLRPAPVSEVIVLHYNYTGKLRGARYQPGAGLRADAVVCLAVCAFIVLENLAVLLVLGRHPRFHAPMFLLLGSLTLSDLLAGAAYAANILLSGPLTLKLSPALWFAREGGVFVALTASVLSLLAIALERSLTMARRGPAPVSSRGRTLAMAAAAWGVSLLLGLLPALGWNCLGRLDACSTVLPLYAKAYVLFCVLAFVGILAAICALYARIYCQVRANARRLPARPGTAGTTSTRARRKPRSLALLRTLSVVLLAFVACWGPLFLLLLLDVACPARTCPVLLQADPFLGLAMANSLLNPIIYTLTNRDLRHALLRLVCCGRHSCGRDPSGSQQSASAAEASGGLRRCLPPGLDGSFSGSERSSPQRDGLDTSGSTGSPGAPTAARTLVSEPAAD
Chain of Melanin-concentrating hormone receptor 1 (Q99705 whole entry): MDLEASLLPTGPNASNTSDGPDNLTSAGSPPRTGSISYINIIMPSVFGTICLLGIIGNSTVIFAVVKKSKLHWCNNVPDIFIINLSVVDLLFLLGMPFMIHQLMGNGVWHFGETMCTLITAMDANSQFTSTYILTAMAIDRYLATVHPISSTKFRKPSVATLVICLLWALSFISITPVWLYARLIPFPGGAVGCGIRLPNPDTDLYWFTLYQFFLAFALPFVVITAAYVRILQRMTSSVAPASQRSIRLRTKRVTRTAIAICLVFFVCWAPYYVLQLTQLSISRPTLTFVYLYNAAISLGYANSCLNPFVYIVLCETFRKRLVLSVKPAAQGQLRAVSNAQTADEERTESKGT
Chain of Sphingosine 1-phosphate receptor 1 (P21453 whole entry): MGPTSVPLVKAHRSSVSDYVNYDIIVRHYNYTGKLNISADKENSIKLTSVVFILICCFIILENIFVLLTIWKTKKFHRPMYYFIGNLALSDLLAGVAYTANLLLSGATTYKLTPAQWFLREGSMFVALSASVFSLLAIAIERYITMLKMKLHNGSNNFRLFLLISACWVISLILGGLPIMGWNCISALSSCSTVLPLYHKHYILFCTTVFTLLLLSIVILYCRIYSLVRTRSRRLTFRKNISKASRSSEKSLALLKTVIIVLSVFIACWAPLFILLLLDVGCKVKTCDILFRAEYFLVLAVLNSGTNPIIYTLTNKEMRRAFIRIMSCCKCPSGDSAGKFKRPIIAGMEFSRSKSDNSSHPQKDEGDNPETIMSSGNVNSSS
Chain of Sphingosine 1-phosphate receptor 3 (Q99500 whole entry): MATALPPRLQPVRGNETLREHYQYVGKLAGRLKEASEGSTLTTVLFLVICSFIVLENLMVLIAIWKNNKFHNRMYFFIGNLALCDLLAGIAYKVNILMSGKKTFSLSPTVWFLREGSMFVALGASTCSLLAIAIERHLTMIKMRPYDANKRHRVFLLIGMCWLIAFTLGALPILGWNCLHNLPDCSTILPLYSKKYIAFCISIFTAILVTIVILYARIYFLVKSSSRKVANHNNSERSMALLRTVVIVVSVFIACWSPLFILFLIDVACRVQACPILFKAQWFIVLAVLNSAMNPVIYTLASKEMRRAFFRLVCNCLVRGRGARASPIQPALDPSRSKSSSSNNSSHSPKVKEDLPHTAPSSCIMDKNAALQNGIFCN

`CC(C)CC(=O)N=c1nc(S)ss1`: the IC50 in assay [1] is 3.98 µM (active); in assay [2], 3.02 µM (active).
Take `CN(C)C1(c2nnnn2CCOC(=O)Nc2ccc(Cl)cc2)CCCCC1`: the AC50 in assay [3] is < 0.009 µM (active); in [4], 0.009 µM (active).
Turning to `N#CC(c1ccc(F)cc1)c1c(Cl)cnn(Cc2cccc3ccccc23)c1=O` (stereo not drawn), the IC50 in [5] and in assay [6] was 0.154 µM (active) throughout.
As to `O=C(Nc1ccc2c(c1)C(=O)NC2=O)c1nc2ccccc2s1`, the IC50 in [7] was > 100 µM (inactive).
As for `CC/N=C1/S/C(=C/c2cc(C)n(-c3ccc(F)cc3F)c2C)C(=O)N1CC`, the EC50 in [8] is > 25 µM (inactive); in assay [9], > 25 µM (inactive); in assay [10] it was 6.18 µM (active); in assay [11], 0.816 µM (active).
As to `CC(C)OC(=O)CSc1ncnc2c1cnn2-c1ccccc1`, the CC50 in [12] was > 100 µM (active).
For the compound `COc1cccc(-c2sc3ccc(OC)cc3c2-c2ccc(OCCN3CCCC3)cc2)c1`, the concentration for a half-maximal effect (EC50) in assay [13] is 10.2 µM (active).
